Experiments:
ALK-positive NSCLC = experiment: Clinical study of LDK378 in ALK-positive NSCLC patients, 750 mg dose group; assay type: in vivo, human
[1] = test system: PD-L1 (CD274) in H3122 cells; experiment: PD-L1 (CD274) expression by TaqMan real time PCR and flow cytometry; assay type: cell-based, human
Description: This example evaluates the effects of selected therapeutic agent LDK378 on PD-L1 (CD274) modulation. LDK378 was examined by real time PCR and flow cytometry on PD-L1 levels.
TaqMan RT PCR assays were developed to detect changes of expression levels of PD-L1 (CD274) in cell lines and xenograft tumors. mRNA was isolated from frozen cell pellets or tumor fragments using the Qiagen RNeasy Mini kit. Isolated RNA was frozen at −80° C. RNA quality was checked and RNA was quantified using a 2100 Agilent Bioanalyzer following the protocol for the Agilent RNA 6000 Nano Kit. cDNA was prepared using a High Capacity RNA-to cDNA Kit (Applied Biosystems).
Real-time PCR reactions were carried out in 20 μl total volume, including 10 μl of Universal PCR master mix (Applied Biosystems), 1 μl of human PD-L1 (CD274) probe/primer set (Applied Biosystems), and 8 μl of cDNA. Each sample was run in triplicate. The amount of cDNA produced from 25-50 ng of RNA in the reverse transcription reaction was used in each PCR reaction. Due to difference in mRNA levels between PD-L1 and GAPDH, the two real-time PCR reactions were done in separate tubes using same amount of cDNA. The real-time PCR reaction was run on the C1000 Thermal Cycle (BioRad) with the cycle program as follows: a 10 minute incubation at 95° C. followed by 40 cycles of 95° C. for 15 seconds and 60° C. for 1 minute. […]

[2] = ceritinib trials; cited from earlier work

Cc1cc(Nc2ncc(Cl)c(Nc3ccccc3S(=O)(=O)C(C)C)n2)c(OC(C)C)cc1C1CCNCC1 [LDK378, 5-chloro-N^2-(2-isopropoxy-5-methyl-4-(piperidin-4-yl)phenyl)-N^4-[2-(propane-2-sulfonyl)-phenyl]-pyrimidine-2,4-diamine]
median progression-free survival (PFS) (ALK-positive NSCLC; 750 mg, 53.3% of the patients censored): 8.21 months
median time to response (ALK-positive NSCLC; 144 patients with confirmed CR or PR, 750 mg): 6.1 weeks
overall response rate (ORR) (ALK-positive NSCLC; 246 ALK-positive NSCLC patients, 750 mg dose group (RD)): 58.5%
ORR (ALK-positive NSCLC; ALK inhibitor-naïve patients): 66.3%
patients who achieved a response within 12 weeks (ALK-positive NSCLC; among the 144 patients with confirmed CR or PR, 750 mg): 86.1%
estimated median duration of response (DOR) (ALK-positive NSCLC; investigator assessment, 750 mg): 9.69 months
ORR (ALK-positive NSCLC; patients treated with a prior ALK inhibitor): 54.6%
PD-L1 mRNA ([1]; H3122 (NSCLC with ALK translocation) in vitro, FIG. 1): Inhibition
PD-L1 levels on tumor cells ([1]; real time PCR and flow cytometry): Significant inhibition
immune-related adverse events [2]: have not been frequently reported
